Patent EP4206196A1, “PYRIMIDINE SUBSTITUTED DERIVATIVES AS TYK2 INHIBITORS” (Almirall S.A., priority 2021, dated 2023)

Legend:
[1] = test system: STAT1/3 through TYK2/JAK1; assay: IFNa induced STAT phosphorylation in HEK293 cells (SIE-bla reporter gene); type: cell-based; conditions: Homo sapiens, HEK293; HEK293T-sie-bla cells, IFNa at EC80, 4 hours; read-out: Inhibition of IFNa induced STAT phosphorylation HEK293 cells IC50
Outline: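 HEK293T cells carrying a SIE-driven β-lactamase reporter were co-treated with compound (1/5 serial dilution, 10 points, 0.1% DMSO final) and IFNa at EC80 for 4 h at 37°C. β-Lactamase substrate was added to stop the stimulation, followed by overnight dark incubation and FRET read. IC50 from a four-parameter logistic fit.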

[2] = molecular target: T1, TYK2 (JH2domain-pseudokinase) (Homo sapiens, UniProt P29597); assay: TYK2 JH2 domain binding assay (KINOMEscan)
T1 construct: TYK2 (JH2domain-pseudokinase)-tagged T7 phage strains were prepared in an E. coli host derived from the BL21 strain; made in house; host or cells: E. coli BL21-derived host (T7 phage) or HEK-293 cells
Outline: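 Competition binding of DNA-tagged TYK2 JH2 pseudokinase domain against immobilised affinity ligand, 1 h at room temperature in SeaBlock/PBS/Tween/DTT buffer with about 1% DMSO. Bound kinase eluted and quantified by qPCR. Kd taken from 11-point 3-fold series, usually 30,000 nM top, fitted by Levenberg-Marquardt nonlinear least squares.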

T1 sequence (P29597 589-875 limits assumed): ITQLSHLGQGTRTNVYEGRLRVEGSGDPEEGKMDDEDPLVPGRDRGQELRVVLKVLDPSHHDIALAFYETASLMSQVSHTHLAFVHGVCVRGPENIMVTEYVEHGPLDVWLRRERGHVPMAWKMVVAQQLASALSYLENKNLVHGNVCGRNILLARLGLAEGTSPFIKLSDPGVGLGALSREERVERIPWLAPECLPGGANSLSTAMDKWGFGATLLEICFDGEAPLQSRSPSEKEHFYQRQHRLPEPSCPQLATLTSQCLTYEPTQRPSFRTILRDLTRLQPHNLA

Row | SMILES | IC50 [1] [nM] | Kd [2] [nM]
1 | COc1cc(-c2noc(C)n2)ccc1Nc1cc(Nc2cc(C)nc(C)n2)ncn1 [Example 93, N6-(2,6-dimethylpyrimidin-4-yl)-N4-[2-methoxy-4-(5-methyl-1,2,4-oxadiazol-3-yl)phenyl]pyrimidine-4,6-diamine] | > 1000 | 1 to 10
2 | Cc1cc(Nc2cc(Nc3c(F)cc(-c4cnn(C)c4C)cc3S(C)(=O)=O)ncn2)nc(C)n1 [Example 96, N4-[4-(1,5-dimethylpyrazol-4-yl)-2-fluoro-6-methylsulfonyl-phenyl]-N6-(2,6-dimethylpyrimidin-4-yl)pyrimidine-4,6-diamine] | 100 to 1000 | 1 to 10
3 | Cc1cc(C)c(N(C)S(C)(=O)=O)c(Nc2cc(Nc3cc(C)ncn3)ncn2)c1 [Example 100, N-[2,4-dimethyl-6-[[6-[(6-methylpyrimidin-4-yl)amino]pyrimidin-4-yl]amino]phenyl]-N-methylmethanesulfonamide] | > 1000 | > 10
4 | Cc1cc(Nc2cc(Nc3ccccc3N(C)S(C)(=O)=O)ncn2)ncc1F [Example 101, N-[2-[[6-[(5-fluoro-4-methyl-2-pyridyl)amino]pyrimidin-4-yl]amino]phenyl]-N-methyl-methanesulfonamide] | 10 to 100 | < 0.2
5 | CN(c1ccccc1Nc1cc(Nc2ccc(C#N)cn2)ncn1)S(C)(=O)=O [Example 102, N-[2-[[6-[(5-cyano-2-pyridyl)amino]pyrimidin-4-yl]amino]phenyl]-N-methyl-methanesulfonamide] | 10 to 100 | 0.2 to 1
6 | COc1c(Nc2cc(Nc3cc(C)ncn3)ncn2)cc(C)cc1-c1ncn(C)n1 [Example 104, 4-N-[2-methoxy-5-methyl-3-(1-methyl-1,2,4-triazol-3-yl)phenyl]-6-N-(6-methylpyrimidin-4-yl)pyrimidine-4,6-diamine] | 100 to 1000 | 0.2 to 1
7 | Cc1cc(Nc2cc(Nc3ccc(Cc4ccccc4)cc3N(C)S(C)(=O)=O)ncn2)nc(C)n1 [Example 109, N-[5-benzyl-2-[[6-[(2,6-dimethylpyrimidin-4-yl)amino]pyrimidin-4-yl]amino]phenyl]-N-methyl-methanesulfonamide] | < 10 | < 0.2
8 | CN=S(C)(=O)c1ccccc1Nc1cc(Nc2cc(C)nc(C)n2)ncn1 (centres unmarked) [Example 112, N6-(2,6-dimethylpyrimidin-4-yl)-N4-[2-(N,S-dimethylsulfonimidoyl)phenyl]pyrimidine-4,6-diamine] | 10 to 100 | < 0.2
9 | CN=S(C)(=O)c1cc(-c2cnn(C)c2C)ccc1Nc1cc(Nc2cc(C)nc(C)n2)ncn1 (centres unmarked) [Example 113, N4-[4-(1,5-dimethylpyrazol-4-yl)-2-(N,S-dimethylsulfonimidoyl)phenyl]-N6-(2,6-dimethylpyrimidin-4-yl)pyrimidine-4,6-diamine] | < 10 | < 0.2
10 | CN=S(C)(=O)c1c(C)cccc1Nc1cc(Nc2cc(C)nc(C)n2)ncn1 (centres unmarked) [Example 116, N6-(2,6-dimethylpyrimidin-4-yl)-N4-[2-(N,S-dimethylsulfonimidoyl)-3-methyl-phenyl]pyrimidine-4,6-diamine] | 10 to 100 | 0.2 to 1
11 | COc1cc(C2CCOC2)ccc1Nc1cc(Nc2cc(C)nc(C)n2)ncn1 (centres unmarked) [Example 117, N4-(2,6-dimethylpyrimidin-4-yl)-N6-(2-methoxy-4-tetrahydrofuran-3-yl-phenyl)pyrimidine-4,6-diamine] | > 1000 | 1 to 10
12 | Cc1cc(Nc2cc(Nc3ncccc3N(C)S(C)(=O)=O)ncn2)nc(C)n1 [Example 120, N-[2-[[6-[(2,6-dimethylpyrimidin-4-yl)amino]pyrimidin-4-yl]amino]-3-pyridyl]-N-methyl-methanesulfonamide] | 10 to 100 | < 0.2
13 | [2H]C([2H])([2H])N(c1cccnc1Nc1cc(Nc2cc(C)nc(C)n2)ncn1)S(C)(=O)=O [Example 121, N-[2-[[6-[(2,6-dimethylpyrimidin-4-yl)amino]pyrimidin-4-yl]amino]-3-pyridyl]-N-(trideuteriomethyl)methanesulfonamide] | 10 to 100 | < 0.2
14 | Cc1cc(Nc2cc(Nc3ncc(-c4nc(C(F)(F)F)n(C)n4)cc3N(C)S(C)(=O)=O)ncn2)nc(C)n1 [Example 122, N-[2-[[6-[(2,6-dimethylpyrimidin-4-yl)amino]pyrimidin-4-yl]amino]-5-[1-methyl-5-(trifluoromethyl)-1,2,4-triazol-3-yl]-3-pyridyl]-N-methyl-methanesulfonamide] | 10 to 100 | < 0.2
15 | Cc1cc(Nc2cc(Nc3ncc(-c4ncn(C)n4)cc3N(C)S(C)(=O)=O)ncn2)nc(C)n1 [Example 123, N-[2-[[6-[(2,6-dimethylpyrimidin-4-yl)amino]pyrimidin-4-yl]amino]-5-(1-methyl-1,2,4-triazol-3-yl)-3-pyridyl]-N-methyl-methanesulfonamide] | 10 to 100 | 1 to 10

Continued, values first:

Row | IC50 [1] [nM] | Kd [2] [nM] | SMILES
16 | < 10 | < 0.2 | Cc1cc(Nc2cc(Nc3ccc(C4=CCCCO4)cc3N(C)S(C)(=O)=O)ncn2)nc(C)n1 [Example 92, N-[5-(3,4-dihydro-2H-pyran-6-yl)-2-[[6-[(2,6-dimethylpyrimidin-4-yl)amino]pyrimidin-4-yl]amino]phenyl]-N-methylmethanesulfonamide]
17 | < 10 | < 0.2 | Cc1cc(Nc2cc(Nc3ccc(C4=CCCOC4)cc3N(C)S(C)(=O)=O)ncn2)nc(C)n1 [Example 94, N-[5-(3,6-dihydro-2H-pyran-5-yl)-2-[[6-[(2,6-dimethylpyrimidin-4-yl)amino]pyrimidin-4-yl]amino]phenyl]-N-methyl-methanesulfonamide]
18 | < 10 | < 0.2 | Cc1cc(Nc2cc(Nc3ccc(C4=CCOCC4)cc3N(C)S(C)(=O)=O)ncn2)nc(C)n1 [Example 95, N-[5-(3,6-dihydro-2H-pyran-4-yl)-2-[[6-[(2,6-dimethylpyrimidin-4-yl)amino]pyrimidin-4-yl]amino]phenyl]-N-methyl-methanesulfonamide]
19 | 10 to 100 | < 0.2 | Cc1cc(Nc2cc(Nc3ccc(-c4nc(C)n(C)n4)cc3N(C)S(C)(=O)=O)ncn2)nc(C)n1 [Example 97, N-[2-[[6-[(2,6-dimethylpyrimidin-4-yl)amino]pyrimidin-4-yl]amino]-5-(1,5-dimethyl-1,2,4-triazol-3-yl)phenyl]-N-methyl-methanesulfonamide]
20 | 10 to 100 | 0.2 to 1 | Cc1cc(Nc2cc(Nc3ccc(-c4nc(C)nn4C)cc3N(C)S(C)(=O)=O)ncn2)nc(C)n1 [Example 99, N-[2-[[6-[(2,6-dimethylpyrimidin-4-yl)amino]pyrimidin-4-yl]amino]-5-(2,5-dimethyl-1,2,4-triazol-3-yl)phenyl]-N-methyl-methanesulfonamide]
21 | < 10 | < 0.2 | Cc1cc(Nc2cc(Nc3ccc(C4CCCOC4)cc3N(C)S(C)(=O)=O)ncn2)nc(C)n1 (centres unmarked) [Example 105, N-[2-[[6-[(2,6-dimethylpyrimidin-4-yl)amino]pyrimidin-4-yl]amino]-5-tetrahydropyran-3-yl-phenyl]-N-methyl-methanesulfonamide]
22 | 10 to 100 | < 0.2 | Cc1cc(Nc2cc(Nc3ccc(C4CCOCC4)cc3N(C)S(C)(=O)=O)ncn2)nc(C)n1 [Example 106, N-[2-[[6-[(2,6-dimethylpyrimidin-4-yl)amino]pyrimidin-4-yl]amino]-5-tetrahydropyran-4-yl-phenyl]-N-methyl-methanesulfonamide]
23 | < 10 | < 0.2 | Cc1cc(Nc2cc(Nc3ccc(C4CCCCO4)cc3N(C)S(C)(=O)=O)ncn2)nc(C)n1 (centres unmarked) [Example 107, N-[2-[[6-[(2,6-dimethylpyrimidin-4-yl)amino]pyrimidin-4-yl]amino]-5-tetrahydropyran-2-yl-phenyl]-N-methyl-methanesulfonamide]
24 | < 10 | < 0.2 | C=Cc1ccc(Nc2cc(Nc3cc(C)nc(C)n3)ncn2)c(N(C)S(C)(=O)=O)c1 [Example 108, N-[2-[[6-[(2,6-dimethylpyrimidin-4-yl)amino]pyrimidin-4-yl]amino]-5-vinyl-phenyl]-N-methyl-methanesulfonamide]
25 | 100 to 1000 | 1 to 10 | Cc1cc(Nc2cc(Nc3ccc(C4CCNC4)cc3N(C)S(C)(=O)=O)ncn2)nc(C)n1 (centres unmarked) [Example 110, N-[2-[[6-[(2,6-dimethylpyrimidin-4-yl)amino]pyrimidin-4-yl]amino]-5-pyrrolidin-3-yl-phenyl]-N-methyl-methanesulfonamide]
26 | 10 to 100 | < 0.2 | Cc1cc(Nc2cc(Nc3ccc(C4CCOC4)cc3N(C)S(C)(=O)=O)ncn2)nc(C)n1 (centres unmarked) [Example 111, N-[2-[[6-[(2,6-dimethylpyrimidin-4-yl)amino]pyrimidin-4-yl]amino]-5-tetrahydrofuran-3-yl-phenyl]-N-methyl-methanesulfonamide]
27 | < 10 | < 0.2 | Cc1cc(Nc2cc(Nc3ccc(C4CCCO4)cc3N(C)S(C)(=O)=O)ncn2)nc(C)n1 (centres unmarked) [Example 114, N-[2-[[6-[(2,6-dimethylpyrimidin-4-yl)amino]pyrimidin-4-yl]amino]-5-tetrahydrofuran-2-yl-phenyl]-N-methyl-methanesulfonamide]
28 | < 10 | < 0.2 | COCc1ccc(Nc2cc(Nc3cc(C)nc(C)n3)ncn2)c(N(C)S(C)(=O)=O)c1 [Example 115, N-[2-[[6-[(2,6-dimethylpyrimidin-4-yl)amino]pyrimidin-4-yl]amino]-5-(methoxymethyl)phenyl]-N-methyl-methanesulfonamide]
